Source: ChEMBL document CHEMBL2163198, “Substituent effects on desferrithiocin and desferrithiocin analogue iron-clearing and toxicity profiles” (J Med Chem, 2012)

Experiments:
Sapajus apella [1] = test: Iron excretion in iron-overloaded Cebus apella urine at 75 umol/kg, po after 48 hrs by flame absorption spectroscopy analysis relative to control; assay type: functional
[2] = Octanol-water apparent partition coefficient, log D of the compound at pH 7.4; assay type: physicochemical; conditions: for logD: read-out: LogD7.4
Rattus norvegicus [3] = test: Iron clearing effect in noniron-overloaded bile duct cannulated Sprague-Dawley rat at 300 umol/kg, po after 48 hrs; assay type: functional
Rattus norvegicus [4] = test: Iron excretion in noniron-overloaded bile duct cannulated Sprague-Dawley rat bile at 300 umol/kg, po after 48 hrs relative to control; assay type: functional
Sapajus apella [5] = test: Iron excretion in iron-overloaded Cebus apella feces at 75 umol/kg, po after 48 hrs by flame absorption spectroscopy analysis relative to control; assay type: functional
Sapajus apella [6] = test: Iron clearing effect in iron-overloaded Cebus apella at 75 umol/kg, po after 48 hrs by flame absorption spectroscopy analysis; assay type: functional
Rattus norvegicus [7] = test: Iron excretion in noniron-overloaded bile duct cannulated Sprague-Dawley rat urine at 300 umol/kg, po after 48 hrs relative to control; assay type: functional
Rattus norvegicus [8] = test: Toxicity in rat assessed as mortality at 384 umol/kg, po qd for 10 days; assay type: organism-based; conditions: in vivo, 240 h
Rattus norvegicus [9] = assay type: toxicity, organism-based; conditions: in vivo, po, 168 h
Rattus norvegicus [10] = test: Iron clearing effect in noniron-overloaded bile duct cannulated Sprague-Dawley rat assessed as maximum iron clearance time at 300 umol/kg, po; assay type: functional
Sapajus apella [11] = test: Iron excretion in iron-overloaded Cebus apella urine at 75 umol/kg, sc after 48 hrs by flame absorption spectroscopy analysis relative to control; assay type: functional
Sapajus apella [12] = test: Iron excretion in iron-overloaded Cebus apella feces at 75 umol/kg, sc after 48 hrs by flame absorption spectroscopy analysis relative to control; assay type: functional
Rattus norvegicus [13] = test: Iron excretion in noniron-overloaded bile duct cannulated Sprague-Dawley rat urine at 150 umol/kg, po after 24 hrs relative to control; assay type: functional
Rattus norvegicus [14] = test: Iron clearing effect in noniron-overloaded bile duct cannulated Sprague-Dawley rat assessed as maximum iron clearance time at 150 umol/kg, po; assay type: functional
Rattus norvegicus [15] = test: Iron excretion in noniron-overloaded bile duct cannulated Sprague-Dawley rat bile at 150 umol/kg, po after 24 hrs relative to control; assay type: functional
Rattus norvegicus [16] = test: Iron clearing effect in noniron-overloaded bile duct cannulated Sprague-Dawley rat at 150 umol/kg, po after 24 hrs; assay type: functional
Rattus norvegicus [17] = assay type: toxicity, organism-based, Urine; conditions: in vivo, po, 168 h
Sapajus apella [18] = test: Iron excretion in iron-overloaded Cebus apella feces at 150 umol/kg, po after 48 hrs by flame absorption spectroscopy analysis relative to control; assay type: functional
Sapajus apella [19] = test: Iron excretion in iron-overloaded Cebus apella urine at 150 umol/kg, po after 48 hrs by flame absorption spectroscopy analysis relative to control; assay type: functional
Sapajus apella [20] = test: Iron clearing effect in iron-overloaded Cebus apella at 150 umol/kg, po after 48 hrs by flame absorption spectroscopy analysis; assay type: functional
Rattus norvegicus [21] = assay type: toxicity, organism-based, Blood; conditions: in vivo, po, 168 h
Rattus norvegicus [22] = assay type: toxicity, organism-based, Urine; conditions: in vivo, po, 168 h; remark: listed apart in the source
Rattus norvegicus [23] = assay type: toxicity, organism-based, Serum; conditions: in vivo, po, 168 h

Row | SMILES | Activity (Sapajus apella [1]) | Activity (Sapajus apella [5]) | Activity (Sapajus apella [6]) | Activity (Rattus norvegicus [9]) | Time (Rattus norvegicus [10]) | logD [2] | other results
1 | COCCOCCOc1ccc(C2=N[C@@](C)(C(=O)[O-])CS2)c(O)c1.[Na+] | 17% | 83% | 28.7% | Non-toxic | 12 h |  | LogD7.4 [2]: -0.89; Activity (Rattus norvegicus [3]): 26.7%; Activity (Rattus norvegicus [4]): 97%; Activity (Rattus norvegicus [7]): 3%; Activity (Rattus norvegicus [8]): Non-toxic
2 | COCCOCCOc1ccnc(C2=N[C@@](C)(C(=O)[O-])CS2)c1O.[Na+] | 60% | 40% |  | Non-toxic | 6 h | -1.38 | Activity (Sapajus apella [11]): 36%; Activity (Sapajus apella [12]): 64%
3 | COCCOCCOc1cnc(C2=N[C@@](C)(C(=O)[O-])CS2)c(O)c1.[Na+] | 37% | 63% |  | Non-toxic | 6 h | -1.59 | 
4 | COCCOCCOc1cccc(C2=N[C@@](C)(C(=O)[O-])CS2)c1O.[Na+] | 14% | 86% | 22.5% |  | 6 h | -0.96 | Activity (Rattus norvegicus [3]): 15.1%; Activity (Rattus norvegicus [4]): 99%; Activity (Rattus norvegicus [7]): 1%
5 | C[C@]1(C(=O)[O-])CSC(c2ncc(O)cc2O)=N1.[Na+] | 42% | 58% | 10% | Non-toxic | 6 h | -1.68 | 
6 | C[C@]1(C(=O)[O-])CSC(c2ccccc2O)=N1.[Na+] | 24% | 76% | 21.5% |  |  |  | Activity (Rattus norvegicus [13]): 0%; Time (Rattus norvegicus [14]): 6 h; Activity (Rattus norvegicus [15]): 100%; Activity (Rattus norvegicus [16]): 2.7%
7 | C[C@]1(C(=O)[O-])CSC(c2ccc(O)cc2O)=N1.[Na+] [DEFERITRIN SODIUM] |  |  |  | Non-toxic | 3 h |  | Activity (Rattus norvegicus [17]): 69 ng/kg/day; Activity (Sapajus apella [18]): 88%; Activity (Sapajus apella [19]): 12%; Activity (Sapajus apella [20]): 16.8%
8 | C[C@]1(C(=O)[O-])CSC(c2ncccc2O)=N1.[Na+] [DESFERRITHIOCIN SODIUM] |  |  |  | Toxic |  |  | Activity (Rattus norvegicus [13]): 7%; Activity (Rattus norvegicus [21]): 139 mg/dL; Activity (Rattus norvegicus [17]): 1528 ng/kg/day; Time (Rattus norvegicus [14]): 3 h; Activity (Rattus norvegicus [15]): 93%; Activity (Sapajus apella [18]): 78%; Activity (Rattus norvegicus [22]): 192 ng/kg/day; Activity (Sapajus apella [19]): 22%; Activity (Sapajus apella [20]): 16.1%; Activity (Rattus norvegicus [23]): 5.1 mg/dL; Activity (Rattus norvegicus [16]): 5.5%
